Earlier results in Sander's compilation of Henry's law constants (doi:10.1021/es8005783).

Test: Henry solubility constant Hcp at 298.15 K (mol/(m3 Pa))
Details: reference: Hilal et al. (2008); cited value

SMILES	Henry solubility constant Hcp
FC(F)(F)C(F)(Cl)Cl [1,1-dichlorotetrafluoroethane]	7.5e-06
CCc1ccccc1CC [1,2-diethylbenzene]	0.0012
ClC=CCCl [1,3-dichloropropene]	0.0058
CCc1cccc(CC)c1 [1,3-diethylbenzene]	0.0038
C1=CCC=CC1 [1,4-cyclohexadiene]	0.001
ClC1=C(Cl)[C@]2(Cl)[C@H]3[C@H]([C@@H]4C=C[C@H]3C4)[C@@]1(Cl)C2(Cl)Cl [aldrin]	0.02
Cc1c(COC(=O)[C@@H]2[C@H](/C=C(\Cl)C(F)(F)F)C2(C)C)cccc1-c1ccccc1 [bifenthrin]	9.9
ClC(Cl)Br [bromodichloromethane]	0.0077
FC(F)(Cl)Cl [dichlorodifluoromethane]	3.6e-05
ClC1=C(Cl)[C@]2(Cl)[C@@H]3[C@@H]4C[C@@H]([C@H]5O[C@@H]45)[C@@H]3[C@@]1(Cl)C2(Cl)Cl [dieldrin]	0.17
ClC1=C(Cl)C2(Cl)C3C4OC4C(Cl)C3C1(Cl)C2(Cl)Cl (stereo not drawn) [heptachlorepoxide]	0.54
ClC(Cl)=C(Cl)C(Cl)=C(Cl)Cl [hexachlorobutadiene]	0.00097
O=[N+]([O-])c1ccccc1 [nitrobenzene]	0.42

The remaining lines, values ahead:

Henry solubility constant Hcp	SMILES
11	COCC(C)O (stereo not drawn) [1-methoxy-2-propanol]
0.065	CCC(C)N (stereo not drawn) [2-butanamine]
0.72	CC(C)CN [2-methyl-1-propanamine]
0.016	C=C(C)C(=O)OCC [2-methyl-2-propenoic acid, ethyl ester]
6.2e-06	CCCC(C)C [2-methylpentane]
0.22	CC(C)N [2-propanamine]
0.026	CCCN(CCC)CCC [N,N-dipropyl-1-propanamine]
7.2e-06	FC(F)(F)Cl [chlorotrifluoromethane]
6.9	CCCCCCCCC(=O)O [nonanoic acid]
0.02	BrC(Br)(Br)Br [tetrabromomethane]
